Values quoted from earlier work in patent US20150182481A1, “USE OF POLYMER D-LACTIC ACID (PDLA) TO TREAT PAIN” (priority 2013, published 2015).

Key:
[1] = system: C fibers; settings: 300 mM lactic acid injection
[2] = system: nerve poisoned by iodoacetic acid (I.A.A.) and continuously tetanized; settings: I.A.A. solution containing lactate 180 mg/100 cc

For `C[C@@H](O)C(=O)O` [d-lactic acid], the “plasma d-lactate in asymptomatic exercising subjects” value (asymptomatic exercising subjects) is given as 12 mM and the “average plasma concentration at which neurotoxic” value (reversible altered mental status, dysarthria, ataxia) is given as 7.98 mM.

In the case of `C[C@H](O)C(=O)O` [lactic acid, L-Lactic acid], the “firing of C fibers” value [1] is listed as “increase firing of C fibers”.

In the case of `CC(O)C(=O)[O-].[Na+]` (stereo not shown) [sodium lactate], the “effect on sustained galvanic contractions of the nerve” value [2] is listed as “enhances repeated nerve tetanization”.
